Experimental data taken from the supplement of paper PMC10307832.

What was measured:
Vemurafenib + Dasatinib = compound: CCCS(=O)(=O)Nc1ccc(F)c(C(=O)c2c[nH]c3ncc(-c4ccc(Cl)cc4)cc23)c1F [Vemurafenib] + Cc1nc(Nc2ncc(C(=O)Nc3c(C)cccc3Cl)s2)cc(N2CCN(CCO)CC2)n1 [Dasatinib] (partner 0.075 µM); assay: relative viability (nuclei count vs DMSO), 5 days (fraction); higher = more cells survive
In short: (§1)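 Cells from lung cancer lines were seeded into 1536-well plates and, one day later, dosed by pin tool. Treatments were either a single drug or a fixed dose of an anchor drug with five library-drug doses (not always all listed) in √10 steps. After 5 days, nuclei were stained in a one-step fixation (final 0.05% Triton X-100, 1% formaldehyde, 1 ug/ml Hoechst) and counted on 4× images, and relative viability is the treated-to-vehicle nuclei ratio, as the median of duplicate plates.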

OSI-027 + Palbociclib = compound: COc1cccc2cc(-c3nc([C@H]4CC[C@H](C(=O)O)CC4)n4ncnc(N)c34)[nH]c12 [OSI-027] + CC(=O)c1c(C)c2cnc(Nc3ccc(N4CCNCC4)cn3)nc2n(C2CCCC2)c1=O [Palbociclib] (partner 0.5 µM); assay: as above
In short: as §1

Cell Line | relative viability (Vemurafenib + Dasatinib; first compound 0.03162 µM) | relative viability (Vemurafenib + Dasatinib; first compound 0.1 µM) | relative viability (Vemurafenib + Dasatinib; first compound 0.3162 µM) | relative viability (Vemurafenib + Dasatinib; first compound 1 µM) | relative viability (OSI-027 + Palbociclib; first compound 0.01 µM) | relative viability (OSI-027 + Palbociclib; first compound 0.03162 µM) | relative viability (OSI-027 + Palbociclib; first compound 0.1 µM) | relative viability (OSI-027 + Palbociclib; first compound 0.3162 µM) | relative viability (OSI-027 + Palbociclib; first compound 1 µM)
201T | 0.525 | 0.521 | 0.622 | 0.523 | 0.354 | 0.36 | 0.342 | 0.368 | 0.38
A-427 | 0.597 | 0.624 | 0.446 | 0.581 | 0.538 | 0.516 | 0.453 | 0.414 | 0.386
ABC-1 |  | 0.563 |  | 0.567 | 0.828 | 0.531 | 0.476 | 0.444 | 0.553
BEN | 0.274 | 0.257 |  | 0.309 | 0.487 | 0.47 | 0.425 | 0.471 | 0.472
CAL-12T | 0.42 | 0.266 | 0.454 | 0.374 | 0.427 | 0.432 | 0.28 | 0.313 | 0.22
COR-L23 | 0.423 | 0.503 | 0.443 | 0.482 | 0.304 | 0.3 | 0.295 | 0.255 | 0.171
COR-L 105 | 0.317 |  |  | 0.316 | 0.393 | 0.406 | 0.369 | 0.389 | 0.423
ChaGo-K-1 | 0.511 | 0.517 | 0.396 | 0.6 | 0.946 | 0.942 | 0.904 | 0.87 | 0.774
EKVX | 0.51 |  | 0.661 | 0.515 | 0.332 | 0.44 | 0.34 | 0.263 | 0.22
EMC-BAC-2 | 0.175 | 0.28 | 0.209 | 0.337 | 0.488 | 0.499 | 0.487 | 0.398 | 0.348
EPLC-272H | 0.299 | 0.25 | 0.338 | 0.41 | 0.332 | 0.379 | 0.342 | 0.316 | 0.29
H3255 | 0.36 |  | 0.446 | 0.371 | 0.294 | 0.309 | 0.303 | 0.271 | 0.321
HARA | 0.272 | 0.215 | 0.195 | 0.201 | 0.307 | 0.272 | 0.196 | 0.195 | 0.165
HCC-15 | 0.551 | 0.67 |  | 0.726 | 0.689 | 0.67 | 0.717 | 0.591 | 0.402
HCC-44 |  |  |  |  | 0.904 | 0.945 | 0.955 | 0.929 | 0.877
HCC-78 | 0.359 | 0.329 | 0.593 | 0.37 | 0.484 | 0.452 | 0.483 | 0.45 | 0.411
HCC-366 | 0.576 | 0.643 | 0.265 | 0.564 | 0.465 | 0.348 | 0.412 | 0.309 | 0.1
HCC-827 | 0.386 |  | 0.399 | 0.348 | 0.507 | 0.414 | 0.507 | 0.299 | 0.207
HOP-62 | 0.535 | 0.549 | 0.292 | 0.66 | 0.475 | 0.49 | 0.418 | 0.457 | 0.287

Cell Line | relative viability (Vemurafenib + Dasatinib; first compound 0.03162 µM) | relative viability (Vemurafenib + Dasatinib; first compound 0.1 µM) | relative viability (Vemurafenib + Dasatinib; first compound 0.3162 µM) | relative viability (Vemurafenib + Dasatinib; first compound 1 µM) | relative viability (OSI-027 + Palbociclib; first compound 0.01 µM) | relative viability (OSI-027 + Palbociclib; first compound 0.03162 µM) | relative viability (OSI-027 + Palbociclib; first compound 0.1 µM) | relative viability (OSI-027 + Palbociclib; first compound 0.3162 µM) | relative viability (OSI-027 + Palbociclib; first compound 1 µM)
LC-2-ad | 0.592 | 0.669 |  | 0.559 | 0.548 | 0.46 | 0.516 | 0.528 | 0.344
LCLC-97TM1 | 0.76 | 0.853 | 1.05 | 0.685 | 0.236 | 0.205 | 0.217 | 0.139 | 0.239
LCLC-103H | 0.45 | 0.505 | 0.317 | 0.388 | 0.484 | 0.538 | 0.513 | 0.498 | 0.493
LK-2 | 0.306 | 0.306 | 0.33 | 0.223 | 0.578 |  | 0.483 | 0.403 | 0.163
LOU-NH91 | 0.509 |  |  | 0.572 | 0.556 | 0.563 | 0.503 | 0.567 | 0.529
LU99A | 0.425 | 0.554 | 0.389 | 0.431 | 0.382 | 0.379 | 0.304 | 0.217 | 0.237
LXF-289 | 0.203 | 0.236 | 0.0972 | 0.181 | 0.605 | 0.677 | 0.66 | 0.599 | 0.345
NCI-H23 | 0.754 | 0.77 | 0.737 | 0.434 | 0.439 | 0.552 | 0.414 | 0.25 | 0.237
NCI-H322M | 0.241 |  |  | 0.229 | 0.489 | 0.436 | 0.478 | 0.438 | 0.483
NCI-H358 | 0.142 | 0.116 | 0.22 | 0.203 | 0.134 | 0.139 | 0.125 | 0.103 | 0.127
NCI-H441 | 0.565 | 0.663 | 0.838 | 0.542 | 0.165 | 0.205 | 0.178 | 0.146 | 0.166
NCI-H460 | 0.469 | 0.545 | 0.341 | 0.537 | 0.18 | 0.186 | 0.186 | 0.158 | 0.092
NCI-H520 | 0.188 | 0.189 | 0.203 | 0.197 | 0.204 | 0.18 | 0.22 | 0.163 | 0.145
NCI-H522 | 1.08 | 0.718 | 0.875 | 0.855 | 0.995 | 0.938 | 1.04 | 0.79 | 0.535
NCI-H596 | 0.567 | 0.66 | 0.549 | 0.515 |  |  |  |  | 
NCI-H647 | 0.16 | 0.198 | 0.0963 | 0.188 | 0.389 | 0.371 | 0.351 | 0.354 | 0.155
NCI-H650 | 0.392 | 0.52 |  | 0.395 | 0.333 | 0.35 | 0.302 | 0.29 | 0.205
NCI-H661 | 0.829 | 0.59 | 0.54 | 0.938 | 0.375 | 0.424 | 0.368 | 0.347 | 0.301
